Assay results published in patent US9302999B2, “Substituted triazoles as herbicides” (E. I. DU PONT DE NEMOURS AND COMPANY, priority 2012, dated 2016).

Tests used:
Assay type in all cases: in vivo
[1] = tested on: pigweed (Amaranthus retroflexus); assay: Test A pre-/postemergence: pigweed
Summary of the method: (§1)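 Visual 0–100 injury ratings (0 no effect, 100 complete control) taken about ten days after treatment, relative to untreated controls. Preemergence treatment was a directed soil spray; postemergence plants were 2–10 cm tall at one- to two-leaf stage. Soil: loam/sand blend.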

[2] = tested on: wheat (Triticum aestivum); assay: Test A pre-/postemergence: wheat
Summary of the method: as §1

[3] = tested on: barnyardgrass (Echinochloa crus-galli); assay: Test A pre-/postemergence: barnyardgrass
Summary of the method: as §1

[4] = tested on: sedge, umbrella (small-flower umbrella sedge Cyperus difformis); assay: Test B flooded paddy: sedge, umbrella; details: Flood, applied to paddy water at 2-leaf stage, visually evaluated after 13 to 15 days
Summary of the method: (§2)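 Visual ratings (0 = no effect, 100 = complete control) versus untreated controls were taken 13–15 days after treatment of greenhouse plants. Treatment was added to paddy water held at 3 cm depth on 2-leaf-stage seedlings.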

rice (Oryza sativa) = assay: Test B flooded paddy: rice; details: Flood, applied to paddy water at 2-leaf stage, visually evaluated after 13 to 15 days
Experimental: (§3) Seeds selected from rice (Oryza sativa), sedge, umbrella (small-flower umbrella sedge Cyperus difformis), ducksalad (Heteranthera limosa), and barnyardgrass (Echinochloa crus-galli) were grown to the 2-leaf stage for testing. At time of treatment, test pots were flooded to 3 cm above the soil surface, treated by application of test compounds directly to the paddy water, and then maintained at that water depth for the duration of the test.
(§4) Treated plants and controls were maintained in a greenhouse for 13 to 15 days, after which time all species were compared to controls and visually evaluated. Plant response ratings, summarized in Table B, are based on a scale of 0 to 100 where 0 is no effect and 100 is complete control. A dash (-) response means no test result.

[5] = tested on: morningglory (Ipomoea spp.); assay: Test A pre-/postemergence: morningglory
Summary of the method: as §1

[6] = tested on: foxtail, giant (giant foxtail, Setaria faberii); assay: Test A pre-/postemergence: foxtail, giant
Summary of the method: as §1

[7] = tested on: velvetleaf (Abutilon theophrasti); assay: Test A pre-/postemergence: velvetleaf
Summary of the method: as §1

[8] = tested on: barnyardgrass (Echinochloa crus-galli); assay: Test B flooded paddy: barnyardgrass; details: Flood, applied to paddy water at 2-leaf stage, visually evaluated after 13 to 15 days
Summary of the method: as §2

[9] = tested on: crabgrass, large (large crabgrass, Digitaria sanguinalis); assay: Test A pre-/postemergence: crabgrass, large
Summary of the method: as §1

corn (Zea mays) = assay: Test A pre-/postemergence: corn
Summary of the method: as §1

[10] = tested on: ducksalad (Heteranthera limosa); assay: Test B flooded paddy: ducksalad; details: Flood, applied to paddy water at 2-leaf stage, visually evaluated after 13 to 15 days
Experimental: as §3, §4

[11] = Postemergence, 125 g ai/ha, 0 to 100 scale, 0 is no effect, 100 is complete control
[12] = Postemergence, 500 g ai/ha, 0 to 100 scale, 0 is no effect, 100 is complete control
[13] = Preemergence, 125 g ai/ha, 0 to 100 scale where 0 is no effect and 100 is complete control
[14] = Preemergence, 500 g ai/ha, 0 to 100 scale (0 no effect, 100 complete control)

SMILES | Plant response rating, Pigweed [1, 11] | Pigweed plant response rating [1, 12] | Plant response rating, Pigweed [1, 13] | Plant response rating, Pigweed [1, 14] | Plant response rating, Wheat [2, 11] | Wheat plant response rating [2, 12] | Plant response rating, Wheat [2, 13] | Plant response rating, Wheat [2, 14] | Plant response rating, Barnyardgrass [3, 11] | Barnyardgrass plant response rating [3, 12] | Plant response rating, Barnyardgrass [3, 13] | Plant response rating, Barnyardgrass [3, 14] | Plant response rating, Morningglory [5, 11] | Morningglory plant response rating [5, 12] | Plant response rating, Morningglory [5, 13] | Plant response rating, Morningglory [5, 14] | Plant response rating, Foxtail, Giant [6, 11] | Foxtail, Giant plant response rating [6, 12] | Plant response rating, Foxtail, Giant [6, 13] | Plant response rating, Foxtail, Giant [6, 14] | other results
FC(F)(F)c1cccc(-n2nc(Oc3ccnc(C(F)(F)F)c3)c(C3CC3)n2)c1 [Compound 199] | 20 | 60 | 10 | 30 | 0 | 0 | 0 | 0 | 10 | 10 | 0 | 0 | 10 | 20 | 0 | 0 | 10 | 20 | 0 | 50 | Plant response rating, Sedge, Umbrella (0 to 100 scale, 0 is no effect, 100 is complete control) ([4]; 125 g ai/ha): 0; Plant response rating, Rice (0 to 100 scale, 0 is no effect, 100 is complete control) (rice (Oryza sativa); 125 g ai/ha): 0; Plant response rating, Velvetleaf [7, 11]: 10; Velvetleaf plant response rating [7, 12]: 10; Plant response rating, Velvetleaf [7, 13]: 0; Plant response rating, Velvetleaf [7, 14]: 0; Plant response rating, Barnyardgrass (0 to 100 scale, 0 is no effect, 100 is complete control) ([8]; 125 g ai/ha): 0; Plant response rating, Crabgrass, Large [9, 11]: 10; Crabgrass, Large plant response rating [9, 12]: 20; Plant response rating, Crabgrass, Large [9, 13]: 20; Plant response rating, Crabgrass, Large [9, 14]: 70; Plant response rating, Corn (corn (Zea mays); [11]): 10; Corn plant response rating (corn (Zea mays); [12]): 20; Plant response rating, Corn (corn (Zea mays); [13]): 0; Plant response rating, Corn (corn (Zea mays); [14]): 0; Plant response rating, Ducksalad (0 to 100 scale, 0 is no effect, 100 is complete control) ([10]; 125 g ai/ha): 0
Oc1nn(-c2ccc(C(F)(F)F)cc2)nc1Cc1ccnc(C(F)(F)F)c1 [Compound 198] | 10 | 50 | 0 | 0 | 0 | 0 | 0 | 0 | 0 | 0 | 0 | 0 | 10 | 20 | 0 | 0 | 0 | 10 | 0 | 0 | Plant response rating, Sedge, Umbrella (0 to 100 scale, 0 is no effect, 100 is complete control) ([4]; 250 g ai/ha): 0; Plant response rating, Rice (0 to 100 scale, 0 is no effect, 100 is complete control) (rice (Oryza sativa); 250 g ai/ha): 0; Plant response rating, Velvetleaf [7, 11]: 10; Velvetleaf plant response rating [7, 12]: 10; Plant response rating, Velvetleaf [7, 13]: 0; Plant response rating, Velvetleaf [7, 14]: 0; Plant response rating, Barnyardgrass (0 to 100 scale, 0 is no effect, 100 is complete control) ([8]; 250 g ai/ha): 0; Plant response rating, Crabgrass, Large [9, 11]: 0; Crabgrass, Large plant response rating [9, 12]: 10; Plant response rating, Crabgrass, Large [9, 13]: 0; Plant response rating, Crabgrass, Large [9, 14]: 0; Plant response rating, Corn (corn (Zea mays); [11]): 0; Corn plant response rating (corn (Zea mays); [12]): 10; Plant response rating, Corn (corn (Zea mays); [13]): 0; Plant response rating, Corn (corn (Zea mays); [14]): 0; Plant response rating, Ducksalad (0 to 100 scale, 0 is no effect, 100 is complete control) ([10]; 250 g ai/ha): 0
CCCCOc1nn(-c2ccc(C(F)(F)F)cc2)nc1Cc1ccnc(C(F)(F)F)c1 [Compound 194] | 40 | 100 | 0 | 10 | 0 | 20 | 0 | 0 | 10 | 20 | 0 | 0 | 10 | 30 | 0 | 0 | 10 | 30 | 0 | 30 | Plant response rating, Sedge, Umbrella (0 to 100 scale, 0 is no effect, 100 is complete control) ([4]; 125 g ai/ha): 0; Plant response rating, Rice (0 to 100 scale, 0 is no effect, 100 is complete control) (rice (Oryza sativa); 125 g ai/ha): 0; Plant response rating, Velvetleaf [7, 11]: 30; Velvetleaf plant response rating [7, 12]: 50; Plant response rating, Velvetleaf [7, 13]: 0; Plant response rating, Velvetleaf [7, 14]: 0; Plant response rating, Barnyardgrass (0 to 100 scale, 0 is no effect, 100 is complete control) ([8]; 125 g ai/ha): 0; Plant response rating, Crabgrass, Large [9, 11]: 10; Crabgrass, Large plant response rating [9, 12]: 20; Plant response rating, Crabgrass, Large [9, 13]: 0; Plant response rating, Crabgrass, Large [9, 14]: 10; Plant response rating, Corn (corn (Zea mays); [11]): 0; Corn plant response rating (corn (Zea mays); [12]): 20; Plant response rating, Corn (corn (Zea mays); [13]): 0; Plant response rating, Corn (corn (Zea mays); [14]): 0; Plant response rating, Ducksalad (0 to 100 scale, 0 is no effect, 100 is complete control) ([10]; 125 g ai/ha): 0
